These are literature values, as cited in patent publication US20200325234A1, “IMMUNE-BASED TREATMENT OF KRAS-VARIANT CANCER PATIENTS” (MIRA DX, INC., priority 2016, published 2020).

Where two headings read alike, the source gives them in different places.

In the data set the test system is KRAS-variant patients.
Where [1] appears, read: KRAS-variant patients with non-small cell lung cancer (NSCLC).

On to `N.N.[Cl][Pt][Cl]` [cisplatin], for which the response to therapy result (KRAS-variant patients with ovarian or head and neck cancer) is recorded as “resistance”. Turning to `C#Cc1cccc(Nc2ncnc3cc(OCCOC)c(OCCOC)cc23)c1` [erlotonib], the response to therapy result under setting [1] was “resistance”.

Regarding `CNC(=O)c1cc(Oc2ccc(NC(=O)Nc3ccc(Cl)c(C(F)(F)F)c3)cc2)ccn1` [sorafenib], under setting [1], the response to therapy entry is “sensitivity”.
